Assay results reported in patent publication US11618743B2, “Herbicidal compounds” (SYNGENTA PARTICIPATIONS AG, priority 2017, dated 2023).

Experiments:
Assay in all cases: Post-emergence efficacy, Method A
Format in all cases: in vivo
[1] = test system: Echinochloa crus-galli (ECHCG); conditions: Application rate 500 g/Ha, evaluated after 13 days; for Control of weed species after post-emergence application, ECHCG: 100=total damage to plant, 0=no damage; for Control of weed species ECHCG after post-emergence application (100=total damage to plant; 0=no damage to plant): Method A
Protocol: (§1) Seeds of a variety of test species were sown in standard soil in pots. After cultivation for 14 days (post-emergence) under controlled conditions in a glasshouse (at 24/16° C., day/night; 14 hours light; 65% humidity), the plants were sprayed with an aqueous spray solution derived from the dissolution of the technical active ingredient formula (I) in a small amount of acetone and a special solvent and emulsifier mixture referred to as IF50 (11.12% Emulsogen EL360 TM+44.44% N-methylpyrrolidone+44.44% Dowanol DPM glycol ether), to create a 50 g/l solution which was then diluted to required concentration using 0.25% or 1% Empicol ESC70 (Sodium lauryl ether sulphate)+1% ammonium sulphate as diluent.
(§2) The test plants were then grown in a glasshouse under controlled conditions (at 24/16° C., day/night; 14 hours light; 65% humidity) and watered twice daily. After 13 days the test was evaluated (100=total damage to plant; 0=no damage to plant).
(§3) Ipomoea hederacea (IPOHE), Euphorbia heterophylla (EPHHL), Chenopodium album (CHEAL), Amaranthus palmeri (AMAPA), Lolium perenne (LOLPE), Digitaria sanguinalis (DIGSA), Eleusine indica (ELEIN), Echinochloa crus-galli (ECHCG), Setaria faberi (SETFA)

[2] = test system: Amaranthus palmeri (AMAPA); conditions: Application rate 500 g/Ha, evaluated after 13 days; for Control of weed species after post-emergence application, AMAPA: 100=total damage to plant, 0=no damage; for Control of weed species AMAPA after post-emergence application (100=total damage to plant; 0=no damage to plant): Method A
Protocol: as §1, §2, §3

Setaria faberi (SETFA) = conditions: Application rate 500 g/Ha, evaluated after 13 days; for Control of weed species after post-emergence application, SETFA: 100=total damage to plant, 0=no damage; for Control of weed species SETFA after post-emergence application (100=total damage to plant; 0=no damage to plant): Method A
Protocol: as §1, §2, §3

[3] = test system: Euphorbia heterophylla (EPHHL); conditions: Application rate 500 g/Ha, evaluated after 13 days; for Control of weed species after post-emergence application, EPHHL: 100=total damage to plant, 0=no damage; for Control of weed species EPHHL after post-emergence application (100=total damage to plant; 0=no damage to plant): Method A
Protocol: as §1, §2, §3

[4] = test system: Chenopodium album (CHEAL); conditions: Application rate 500 g/Ha, evaluated after 13 days; for Control of weed species after post-emergence application, CHEAL: 100=total damage to plant, 0=no damage; for Control of weed species CHEAL after post-emergence application (100=total damage to plant; 0=no damage to plant): Method A
Protocol: as §1, §2, §3

Eleusine indica (ELEIN) = conditions: Application rate 500 g/Ha, evaluated after 13 days; for Control of weed species after post-emergence application, ELEIN: 100=total damage to plant, 0=no damage; for Control of weed species ELEIN after post-emergence application (100=total damage to plant; 0=no damage to plant): Method A
Protocol: as §1, §2, §3

[5] = test system: Digitaria sanguinalis (DIGSA); conditions: Application rate 500 g/Ha, evaluated after 13 days; for Control of weed species after post-emergence application, DIGSA: 100=total damage to plant, 0=no damage; for Control of weed species DIGSA after post-emergence application (100=total damage to plant; 0=no damage to plant): Method A
Protocol: as §1, §2, §3

SMILES | Control of weed species after post-emergence application, ECHCG [1] | Control of weed species after post-emergence application, AMAPA [2] | Control of weed species after post-emergence application, SETFA (Setaria faberi (SETFA)) | Control of weed species after post-emergence application, EPHHL [3] | Control of weed species after post-emergence application, CHEAL [4] | Control of weed species after post-emergence application, ELEIN (Eleusine indica (ELEIN)) | Control of weed species after post-emergence application, DIGSA [5] | Control of weed species ECHCG after post-emergence application (100=total damage to plant; 0=no damage to plant) [1] | Control of weed species AMAPA after post-emergence application (100=total damage to plant; 0=no damage to plant) [2] | Control of weed species SETFA after post-emergence application (100=total damage to plant; 0=no damage to plant) (Setaria faberi (SETFA)) | Control of weed species EPHHL after post-emergence application (100=total damage to plant; 0=no damage to plant) [3] | Control of weed species CHEAL after post-emergence application (100=total damage to plant; 0=no damage to plant) [4] | Control of weed species ELEIN after post-emergence application (100=total damage to plant; 0=no damage to plant) (Eleusine indica (ELEIN)) | Control of weed species DIGSA after post-emergence application (100=total damage to plant; 0=no damage to plant) [5]
O=C([O-])C(F)(F)F.O=P(O)(O)CC[n+]1ccc(-c2ncccn2)cn1 [Compound A198] | 80 | 100 | 90 | 100 | 100 | 80 | 80 |  |  |  |  |  |  | 
O=C(O)CC[n+]1ccc(-c2cncc(C(F)(F)F)n2)cn1.O=C([O-])C(F)(F)F [Compound A120] |  |  |  |  |  |  |  | 40 | 90 | 40 | 50 | 70 | 30 | 40
Cc1nccc(-c2cc[n+](CCC(=O)O)nc2)n1.O=C([O-])C(F)(F)F [Compound A55] |  |  |  |  |  |  |  | 90 |  | 100 | 70 | 80 | 100 | 100
COC(=O)c1ccc(C[n+]2ccc(-c3ncccn3)cn2)cc1.O=C([O-])C(F)(F)F [Compound A229] | 0 | 10 | 10 |  | 0 | 0 | 20 |  |  |  |  |  |  | 
Cc1n[n+](CCC(=O)O)ccc1-c1ncccn1.[Cl-] [Compound A133] |  |  |  |  |  |  |  | 70 | 60 | 90 | 20 | 40 | 90 | 70
Cc1n[n+](CCC(=O)O)ccc1-c1ncccn1.O=C([O-])C(F)(F)F [Compound A132] |  |  |  |  |  |  |  | 70 | 90 | 100 | 30 | 30 | 90 | 90
CC(C)(CC(=O)O)[n+]1ccc(-c2ccncn2)cn1.O=C([O-])C(F)(F)F [Compound A189] | 80 | 100 | 70 | 90 | 100 | 90 | 50 |  |  |  |  |  |  | 
O=C(O)CC[n+]1ccc(-c2ccnc(C(F)(F)F)n2)cn1.O=C([O-])C(F)(F)F [Compound A118] |  |  |  |  |  |  |  | 40 | 80 | 70 | 90 | 80 | 70 | 90
Cc1n[n+](CCC(=O)O)ccc1-c1ccccn1.O=C([O-])C(F)(F)F [Compound A145] |  |  |  |  |  |  |  | 0 | 10 | 0 | 10 | 10 | 0 | 10
CC(C[n+]1ccc(-c2ccncn2)cn1)C(=O)O.O=C([O-])C(F)(F)F (stereo not shown) [Compound A171] | 60 | 100 | 60 |  | 80 | 80 | 60 |  |  |  |  |  |  | 
CC(CC(=O)O)[n+]1ccc(-c2ncccn2)cn1.O=C([O-])C(F)(F)F (stereo not shown) [Compound A40, 3-(4-pyrimidin-2-ylpyridazin-1-ium-1-yl)butanoic acid 2,2,2-trifluoroacetate] |  |  |  |  |  |  |  | 90 | 90 | 100 | 90 | 70 | 90 | 90
CC(C)(C[n+]1ccc(-c2ccncn2)cn1)C(=O)O.O=C([O-])C(F)(F)F [Compound A167] | 60 | 20 | 40 | 90 | 70 | 80 | 50 |  |  |  |  |  |  | 
O=C([O-])C(F)(F)F.O=P(O)(O)CCC[n+]1ccc(-c2ncccn2)cn1 [Compound A233] | 60 | 100 | 70 |  | 100 | 50 | 60 |  |  |  |  |  |  | 
O=C(O)c1ccc(C[n+]2ccc(-c3ncccn3)cn2)cc1.O=C([O-])C(F)(F)F [Compound A228] | 10 | 80 | 10 |  | 60 | 10 | 20 |  |  |  |  |  |  | 
N[C@@H](CC[n+]1ccc(-c2ncccn2)cn1)C(=O)O.O=C(O)C(F)(F)F.O=C([O-])C(F)(F)F [Compound A201, [(1S)-1-carboxy-3-(4-pyrimidin-2-ylpyridazin-1-ium-1-yl)propyl]ammonium 2,2,2-trifluoroacetate] | 70 |  | 80 |  |  |  | 80 |  |  |  |  |  |  | 
O=C([O-])C(F)(F)F.OCC[n+]1ccc(-c2ncccn2)cn1 [Compound A195, 2-(4-pyrimidin-2-ylpyridazin-1-ium-1-yl)ethanol 2,2,2-trifluoroacetate] | 10 |  |  |  | 60 | 10 | 20 |  |  |  |  |  |  | 
Nc1cc(-c2cc[n+](CCC(=O)O)nc2)ncn1.O=C([O-])C(F)(F)F [Compound A163] | 40 | 100 |  | 50 | 60 | 90 | 50 |  |  |  |  |  |  | 
N#Cc1ccc(-c2cc[n+](CCC(=O)O)nc2)nc1.O=C([O-])C(F)(F)F [Compound A176] | 30 | 40 | 40 |  | 30 | 70 | 30 |  |  |  |  |  |  | 
